Reference: PubChem BioAssay AID1259407 (Chemical Carcinogenesis Research Information System (CCRIS), 2018)
Active and inactive are the calls of the source. The rule behind the calls is not given here.

Test system: CCRIS mutagenicity, Ames/micronucleus/aberration tests
Assay: CCRIS mutagenicity studies
[1] = Test System: AMES SALMONELLA TYPHIMURIUM, Strain/Indicator: TA98, Metabolic Activation: NONE, Method: STANDARD PLATE
[2] = Test System: AMES SALMONELLA TYPHIMURIUM, Strain/Indicator: TA98, Metabolic Activation: RAT, LIVER, S-9, AROCLOR 1254, Method: STANDARD PLATE
[3] = Test System: AMES SALMONELLA TYPHIMURIUM, Strain/Indicator: TA100, Metabolic Activation: NONE, Method: STANDARD PLATE
[4] = Test System: AMES SALMONELLA TYPHIMURIUM, Strain/Indicator: TA100, Metabolic Activation: RAT, LIVER, S-9, AROCLOR 1254, Method: STANDARD PLATE
[5] = Test System: AMES SALMONELLA TYPHIMURIUM, Strain/Indicator: TA1535, Metabolic Activation: NONE, Method: STANDARD PLATE
[6] = Test System: AMES SALMONELLA TYPHIMURIUM, Strain/Indicator: TA1535, Metabolic Activation: RAT, LIVER, S-9, AROCLOR 1254, Method: STANDARD PLATE
[7] = Test System: AMES SALMONELLA TYPHIMURIUM, Strain/Indicator: TA1537, Metabolic Activation: NONE, Method: STANDARD PLATE
[8] = Test System: AMES SALMONELLA TYPHIMURIUM, Strain/Indicator: TA1537, Metabolic Activation: RAT, LIVER, S-9, AROCLOR 1254, Method: STANDARD PLATE
[9] = Test System: MOUSE LYMPHOMA, Strain/Indicator: L5178Y (TK+/TK-), Metabolic Activation: NONE, Method: SUSPENSION/PLATE
[10] = Test System: AMES SALMONELLA TYPHIMURIUM, Strain/Indicator: TA100, Metabolic Activation: NONE, Method: PREINCUBATION

CCn1cc(C(=O)O)c(=O)c2cc(F)c(-c3ccncc3)c(F)c21
mutagenic call (Test System: AMES SALMONELLA TYPHIMURIUM, Strain/Indicator: TA98, Metabolic Activation: MOUSE, LIVER, S-9, AROCLOR 1254, Method: STANDARD PLATE): inactive; negative | mutagenic call [1]: inactive; negative | mutagenic call [2]: inactive; negative | mutagenic call (Test System: AMES SALMONELLA TYPHIMURIUM, Strain/Indicator: TA100, Metabolic Activation: MOUSE, LIVER, S-9, AROCLOR 1254, Method: STANDARD PLATE): inactive; negative | mutagenic call [3]: inactive; negative | mutagenic call [4]: inactive; negative | mutagenic call (Test System: AMES SALMONELLA TYPHIMURIUM, Strain/Indicator: TA1535, Metabolic Activation: MOUSE, LIVER, S-9, AROCLOR 1254, Method: STANDARD PLATE): inactive; negative | mutagenic call [5]: inactive; negative | mutagenic call [6]: inactive; negative | mutagenic call (Test System: AMES SALMONELLA TYPHIMURIUM, Strain/Indicator: TA1537, Metabolic Activation: MOUSE, LIVER, S-9, AROCLOR 1254, Method: STANDARD PLATE): inactive; negative | mutagenic call [7]: inactive; negative | mutagenic call [8]: inactive; negative | mutagenic call (Test System: CHINESE HAMSTER OVARY, Strain/Indicator: CHO-K1-CMZ (HGPRT), Metabolic Activation: NONE): active; positive | mutagenic call (Test System: CHINESE HAMSTER V-79, Strain/Indicator: V-79/6-THIOGUANINE, Metabolic Activation: NONE): active; positive | mutagenic call (Test System: CHINESE HAMSTER V-79, Strain/Indicator: V-79/6-THIOGUANINE, Metabolic Activation: RAT, LIVER, S-9, AROCLOR 1254): active; positive | mutagenic call [9]: active; positive | mutagenic call (Test System: MOUSE LYMPHOMA, Strain/Indicator: L5178Y (TK+/TK-), Metabolic Activation: RAT, LIVER, S-9, Method: SUSPENSION/PLATE): active; positive

O=C[C@H](O)[C@@H](O)[C@H](O)[C@H](O)CO
mutagenic call (Test System: AMES SALMONELLA TYPHIMURIUM, Strain/Indicator: TA98, Metabolic Activation: RAT LIVER S-9, CHLOROPHENE, Method: STANDARD PLATE (COMPOUND HEATED AT 250 DEGREES CELSIUS FOR 20 MIN)): inactive; negative | mutagenic call [9]: active; positive

Nc1ccc(N)c(S(=O)(=O)O)c1
mutagenic call (Test System: AMES SALMONELLA TYPHIMURIUM, Strain/Indicator: TA98, Metabolic Activation: NONE, Method: PREINCUBATION): inactive; negative | mutagenic call (Test System: AMES SALMONELLA TYPHIMURIUM, Strain/Indicator: TA98, Metabolic Activation: RAT, LIVER, S-9, AROCLOR 1254, Method: PREINCUBATION): inactive; negative | mutagenic call [10]: inactive; negative | mutagenic call (Test System: AMES SALMONELLA TYPHIMURIUM, Strain/Indicator: TA100, Metabolic Activation: RAT, LIVER, S-9, AROCLOR 1254, Method: PREINCUBATION): inactive; negative | mutagenic call (Test System: UDS RODENT HEPATOCYTES, Strain/Indicator: THY INCORP (NON-S-PHASE), Metabolic Activation: NONE, Method: AUTORADIOGRAPHY): active; positive

CC(=O)OCCCCCCCCONC(=O)c1ccccc1
mutagenic call [1]: active; positive | mutagenic call [3]: active; positive | mutagenic call (Test System: AMES SALMONELLA TYPHIMURIUM, Strain/Indicator: TA100, Metabolic Activation: RAT, S-9, AROCLOR, Method: STANDARD PLATE): inactive; negative

C=C(C)C(=O)OCCOC(=O)C(=C)C
mutagenic call (Test System: AMES SALMONELLA TYPHIMURIUM, Strain/Indicator: TA98, Metabolic Activation: HAMSTER, LIVER, S-9, AROCLOR 1254, Method: STANDARD PLATE): inactive; negative | mutagenic call [1]: inactive; negative | mutagenic call (Test System: AMES SALMONELLA TYPHIMURIUM, Strain/Indicator: TA98, Metabolic Activation: RAT, LIVER, AROCLOR 1254, Method: STANDARD PLATE): inactive; negative | mutagenic call [2]: inactive; negative | mutagenic call (Test System: AMES SALMONELLA TYPHIMURIUM, Strain/Indicator: TA98, Metabolic Activation: RAT, LIVER, S-9, SODIUM PHENOBARBITAL, Method: STANDARD PLATE): inactive; negative | mutagenic call (Test System: AMES SALMONELLA TYPHIMURIUM, Strain/Indicator: TA100, Metabolic Activation: HAMSTER, LIVER, S-9, AROCLOR 1254, Method: STANDARD PLATE): inactive; negative | mutagenic call [3]: inactive; negative | mutagenic call [4]: inactive; negative | mutagenic call (Test System: AMES SALMONELLA TYPHIMURIUM, Strain/Indicator: TA100, Metabolic Activation: RAT, LIVER, S-9, SODIUM PHENOBARBITAL, Method: STANDARD PLATE): inactive; negative | mutagenic call (Test System: AMES SALMONELLA TYPHIMURIUM, Strain/Indicator: TA1535, Metabolic Activation: HAMSTER, LIVER, S-9, AROCLOR 1254, Method: STANDARD PLATE): inactive; negative | mutagenic call [5]: inactive; negative | mutagenic call [6]: inactive; negative | mutagenic call (Test System: AMES SALMONELLA TYPHIMURIUM, Strain/Indicator: TA1535, Metabolic Activation: RAT, LIVER, S-9, SODIUM PHENOBARBITAL, Method: STANDARD PLATE): inactive; negative | mutagenic call (Test System: AMES SALMONELLA TYPHIMURIUM, Strain/Indicator: TA1537, Metabolic Activation: HAMSTER, LIVER, S-9, AROCLOR 1254, Method: STANDARD PLATE): inactive; negative | mutagenic call [7]: inactive; negative | mutagenic call [8]: inactive; negative | mutagenic call (Test System: AMES SALMONELLA TYPHIMURIUM, Strain/Indicator: TA1537, Metabolic Activation: RAT, LIVER, S-9, SODIUM PHENOBARBITAL, Method: STANDARD PLATE): inactive; negative | mutagenic call (Test System: AMES SALMONELLA TYPHIMURIUM, Strain/Indicator: TA1538, Metabolic Activation: NONE, Method: STANDARD PLATE): inactive; negative | mutagenic call (Test System: AMES SALMONELLA TYPHIMURIUM, Strain/Indicator: TA1538, Metabolic Activation: RAT, LIVER, S-9, AROCLOR 1254, Method: STANDARD PLATE): inactive; negative | mutagenic call (Test System: AMES SALMONELLA TYPHIMURIUM, Strain/Indicator: TA1538, Metabolic Activation: RAT, LIVER, S-9, SODIUM PHENOBARBITAL, Method: STANDARD PLATE): inactive; negative | mutagenic call (Test System: Mouse lymphoma, Strain/Indicator: L5178Y (tk+/tk-), Metabolic Activation: Rat, Liver, S-9, Aroclor 1254, Method: Suspension/plate): active; positive

Cc1ccccc1OP(=O)(Oc1ccccc1C)Oc1ccccc1C
mutagenic call [3]: inactive; negative | mutagenic call (Test System: AMES SALMONELLA TYPHIMURIUM, Strain/Indicator: TA100, Metabolic Activation: RAT, LIVER, MICROSOMES, Method: STANDARD PLATE): active; positive

N[C@@H](CCC(=O)NC(CSC(Cl)=C(Cl)Cl)C(=O)NCC(=O)O)C(=O)O (some centres not stated)
mutagenic call [10]: inactive; negative | mutagenic call (Test System: AMES SALMONELLA TYPHIMURIUM, Strain/Indicator: TA100, Metabolic Activation: RAT, KIDNEY, MICROSOMES, Method: PREINCUBATION): active; positive
